Measurements: PMC9289467, “A Novel Multifunctional 5,6-Dimethoxy-Indanone-Chalcone-Carbamate Hybrids Alleviates Cognitive Decline in Alzheimer’s Disease by Dual Inhibition of Acetylcholinesterase and Inflammation” (Frontiers in Aging Neuroscience, 2022)

Experiments:
Aβ42 oligomers = target: T1, Aβ42 oligomers (Homo sapiens, UniProt P05067); assay: Aβ42 self-oligomerization dot blot (A11 antibody); assay type: biochemical; conditions: oligomer-specific antibody A11
T1 construct: purchased Aladdin A118755
T1 sequence (P05067 672-713 limits assumed): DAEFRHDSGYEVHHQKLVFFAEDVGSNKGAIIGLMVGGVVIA
Protocol: The formation of Aβ40 or Aβ42 oligomers was monitored by dot blot with oligomer-specific antibody. Briefly, the resulting Aβ film was dissolved in ddH2O to form a 100 μM solution, and then the oligomerization reaction ([Kayed et al., 2003]) was initiated in absence or presence of different concentrations of AP5. An aliquot (2 μL) of each solution was dripped on a nitrocellulose membrane. The membrane was blocked with 5% non-fat milk in TBS for 1 h, incubated with the anti-β amyloid (MOAB-2, NBP2-13075SS, Novus Biologicals, Colorado, United States), anti-amyloid oligomers (A11, NBP1-97930, Novus Biologicals), or anti-amyloid fibrils (OC, NBP1-97930, Novus Biologicals) antibodies overnight at 4°C. The membrane was then incubated using HRP-conjugated secondary antibodies at room temperature for 1 h and then developed with ECL.

TNF-α, IL-6, IL-1β = assay: ELISA of proinflammatory cytokines, APP/PS1 mice; assay type: in vivo; conditions: TBS fraction, AP5 40 mg/kg once daily 5 months
Protocol: (§1) APP/PS1 mice of ages 6 months were randomly divided into vehicle (APP/PS1, n = 10) and treatment groups (AP5, n = 10), which were intragastrically administered with AP5 (40 mg/kg) once daily for consecutive 5 months. AP5 was dissolved in distilled water containing 1% sodium carboxymethyl cellulose.
For detecting the pathological soluble or insoluble Aβ in mice, sequential extractions were performed as follows: the half of right hippocampus and cortex from three groups were homogenized in TBS solution containing 5 mM EDTA, phosphatase inhibitor (P1050, Beyotime, Shanghai, China), and protease inhibitor cocktail (P1010, Beyotime) followed by centrifugation at 25,000g at 4°C for 1 h. The supernatant was collected as a TBS fraction and the resulting pellet was solubilized in 70% formic acid (FA), sonicated until the lysis buffer was clear, followed by centrifugation at 25,000g at 4°C for 1 h. The supernatant was collected as the FA fraction and neutralized (1:20) in a neutralization buffer (1 M tris base, 0.5 M Na2HPO4, 0.05% NaN3). Human Aβ40 and Aβ42 were determined by ELISA kits (E-EL-H0452c and E-EL-H0453c, Elabscience, Wuhan, China) in accordance with the manufacturer’s instructions. In addition, the levels of IL-1β (88-7013-88, Invitrogen), IL-6 (EK206HS-96, Multi sciences, HangZhou, China), and TNF-α (88-7324-88, Invitrogen) in TBS fraction were also determined by ELISA.

synaptophysin, PSD95 = assay: Synaptophysin and PSD95 co-immunofluorescence and western blot, hippocampus; assay type: in vivo, APP/PS1 mice
Protocol: as §1
The fixed hemibrains were paraffin-embedded and sectioned in the coronal plane. The slices were deparaffinized with xylene and rehydrated by a series of gradient alcohols. Antigen retrieval through microwave boiling was performed with 10 mM sodium citrate solution at pH 6.0. The slices were cooled down to room temperature and then rinsed in PBS solution. […]
Frozen hippocampus and cortex were homogenized in pre-cooling RIPA buffer (P0013B, Beyotime) supplemented with 1 mM phenylmethanesulfonyl fluoride (PMSF) and cocktail of protease and phosphatase inhibitors. […] Densitometric analysis was performed using Quantity One software (Bio-Rad, Berkeley, CA, United States).
Briefly, for ACh assay, the reactions were started by adding 100 µL of the Amplex Red reagent, HRP, choline oxidase, AChE working solution to each microplate well containing the controls and samples. […] Assay plates were incubated at room temperature for 30 min and protected from light, followed by detecting fluorescence of resorufin (λex = 544 nm, λem = 590 nm) in a fluorescence microplate reader. […]

[1] = tested on: hippocampal gene expression; assay: Bulk RNA-seq of hippocampal tissues; assay type: in vivo, APP/PS1 mice
Protocol: as §1
Hippocampal specimens from WT, APP/PS1, and AP5 mice stored in dry ice were sent to Beijing Genomics Institute (Wuhan, China), and the total RNA was extracted for RNA sequencing on BGISEQ-500 system. Moreover, the differentially expressed genes between APP/PS1 and AP5 were analyzed after RNA sequencing.

CCN(C)C(=O)Oc1cccc(/C=C2\Cc3cc(OC)c(OC)cc3C2=O)c1 [AP5, (E)-3-((5,6-dimethoxy-1-oxo-1,3-dihydro-2H-inden-2-ylidene)-methyl)phenylethyl(methyl)carbamate]
levels of oligomeric Aβ42 (Aβ42 oligomers): decreased the levels | IL-1β level (TNF-α, IL-6, IL-1β): markedly reduced | IL-6 level (TNF-α, IL-6, IL-1β): markedly reduced | TNF-α level (TNF-α, IL-6, IL-1β): markedly reduced | pre-, post- and double-positive synaptic puncta (synapse damage) (synaptophysin, PSD95; synaptophysin and PSD95 co-immunofluorescence, hippocampus CA3): markedly recovered | expression levels of synaptophysin and PSD95 (synaptophysin, PSD95; western blot, hippocampus): more than that in the APP/PS1 mice | expression of genes linked to pan-reactive and A1 astrocytes ([1]; hippocampus RNA-seq): reduced the expression of most genes | expression of signature genes of A2-specific astrocytes ([1]; hippocampus RNA-seq, among groups): No differences | DAM gene expression ([1]; hippocampus, AP5-treated vs untreated APP/PS1 mice): increase in DAM gene expression
